# Key:
# [1] = in vitro; conditions: human, microsomes
# Description: Clearance in human liver microsomes
# [2] = in vitro; conditions: mouse, microsomes
# Description: Clearance in mouse liver microsomes
# [3] = in vitro; conditions: rat, microsomes
# Description: Clearance in rat liver microsomes
# [4] = molecular target: Bromodomain-containing protein 4 (Homo sapiens, UniProt O60885)
# Description: Inhibition of BRD4 bromodomain 1 (unknown origin) by TR-FRET assay
# [5] = in vitro; conditions: human, hepatocytes
# Description: Hepatic clearance in human hepatocytes
# [6] = in vitro; conditions: human, plasma
# Description: Protein binding in human plasma
# [7] = in vitro; conditions: mouse, hepatocytes
# Description: Hepatic clearance in mouse hepatocytes
# [8] = in vitro; conditions: mouse, plasma
# Description: Protein binding in mouse plasma
# [9] = in vitro; conditions: rat, plasma
# Description: Protein binding in rat plasma
# [10] = in vivo; conditions: CD-1, mouse
# Description: Half life in CD-1 mouse at 1 mg/kg, iv or 5 mg/kg, po
# [11] = in vivo; conditions: CD-1, mouse, iv, 1 mg/kg
# Description: Volume of distribution at steady state in CD-1 mouse at 1 mg/kg, iv or 5 mg/kg, po
# [12] = in vivo; conditions: CD-1, mouse, iv, 1 mg/kg; remark: listed apart in the source
# Description: Clearance in CD-1 mouse at 1 mg/kg, iv or 5 mg/kg, po
# [13] = in vivo; conditions: CD-1, mouse, po, 5 mg/kg
# [14] = physchem; conditions: buffer, pH 7.4
# Description: Kinetic solubility in PBS buffer at pH 7.4
# [15] = in vitro; conditions: rat, hepatocytes
# Description: Hepatic clearance in rat hepatocytes
# [16] = in vitro; conditions: dog, MDCK
# Description: Apparent permeability from apical to basolateral side in MDCK cells
CLhep predicted [1],CLhep predicted [2],CLhep predicted [3],IC50 [4],SMILES,other results
11 mL/min/kg,32 mL/min/kg,45 mL/min/kg,3.8 µM,CC(=O)N1CCc2c(c(-c3cccc4cc(-c5cn(C)nc5C#N)ncc34)nn2C2CCOCC2)C1,
,,,11 µM,COc1ccc(-c2nn(C3CCOCC3)c3c2CN(C(C)=O)CC3)c2cnccc12,
,,,> 20 µM,CC(=O)N1CCc2c(c(-c3cccc4c[nH]c(=O)cc34)nn2C2CCOCC2)C1,
,,,> 20 µM,CC(=O)N1CCc2c(c(-c3cc(CO)cc4ccncc34)nn2C2CCOCC2)C1,
,,,> 20 µM,CC(=O)N1CCc2c(c(-c3cncc4ccccc34)nn2C2CCOCC2)C1,
8 to 8.3 mL/min/kg,20 mL/min/kg,18 mL/min/kg,2.5 µM,CC(=O)N1CCc2c(c(-c3cccc4cc(-c5cnn(C)c5)ncc34)nn2C2CCOCC2)C1,CLhep predicted [5]: < 6 mL/min/kg; fraction unbound [6]: 0.3; CLhep predicted [7]: < 21 mL/min/kg; fraction unbound [8]: 0.15; fraction unbound [9]: 0.24; half-life [10]: 1.6 h; Vd [11]: 1.3 L/kg; clearance [12]: 11 mL/min/kg; bioavailability [13]: 67%; solubility kinetic [14]: 92 µM; CLhep predicted [15]: 14 mL/min/kg; Papp A→B [16]: 10 ×10⁻⁶ cm/s

# From ChEMBL document CHEMBL4184171, “Design and synthesis of a biaryl series as inhibitors for the bromodomains of CBP/P300” (Bioorg Med Chem Lett, 2018)
